Earlier results as cited in US20100216994A1, “USE OF NOVEL COMPOUND HAVING AFFINITY FOR AMYLOID, AND PROCESS FOR PRODUCTION OF THE SAME” (NIHON MEDI-PHYSICS CO., LTD., priority 2007, published 2010).

Experiments:
[1] = International Publication No. WO03/106439; cited from earlier work
[2] = [^11C]-labeled, rats; cited from earlier work

Structure (SMILES)	reverse mutation test result [1]	clearance from normal tissues [2]
CC(=C(C#N)C#N)c1ccc2cc(N(C)CCF)ccc2c1 [FDDNP, 2-(1-{6-[(2-fluoroethyl)(methyl)amino]-2-naphthyl}ethylidene)malononitrile]	positive	–
CN(C)c1ccc(-c2cn3cc(I)ccc3n2)cc1 [IMPY, 6-iodo-2-[4′-(N,N-dimethylamino)phenyl]imidazo[1,2-a]pyridine]	positive	–
CNc1ccc(/C=C/c2ccc(O)cc2)cc1 [SB-13, (E)-4-methylamino-4′-hydroxystilbene]	–	it cannot be said that the clearance is sufficiently fast
